Measurements taken from US20070129344A1, “Bicyclic 6-alkylidene-penem beta-lactamase inhibitors and beta-lactam antibiotic combination: a broad spectrum antibiotic” (priority 2005, published 2007).
In brackets after ≈: the same amount, converted by molar mass. Structures can show the parent of a compound that is named as a salt. Where two headings read alike, the source gives them in different places.

Legend:
[1] = system: E. coli GC 2295 TEM-1 + AmpC; assay: MIC microbroth dilution; β-lactamase class A, C; format: cell-based
Experimental: (§1) The in vitro activities of the antibiotics were determined by the microbroth dilution method as recommended by the National Committee for Clinical Laboratory Standards (NCCLS). (NCCLS. 2000. Methods for Dilution Antimicrobial Susceptibility Tests for Bacteria That Grow Aerobically; Approved Standards: M7-A5, vol. 19. National Committee for Clinical Laboratory Standards, Villanova, Pa.). Mueller-Hinton II broth (MHBII)(BBL Cockeysville, Md.), was used for the testing procedure. […]. The plates were incubated for 18-22 hours at 35° C. in ambient air.

[2] = system: P. aeruginosa PT 9025 PTZ-R; assay: MIC microbroth dilution; format: cell-based
Experimental: as §1

E. coli GC 2906 (Imi-1) = assay: MIC microbroth dilution; β-lactamase class A (Cb'ase); format: cell-based
Experimental: as §1

[3] = system: K. pneumoniae GC 7636 TEM-1 KPC-2 SHV-12; assay: MIC microbroth dilution; β-lactamase class A, A (Cb'ase), A (ESBL); format: cell-based
Experimental: as §1

[4] = system: K. oxytoca GC 7627 TEM-1 K1 KPC-2; assay: MIC microbroth dilution; β-lactamase class A, A (Cb'ase); format: cell-based
Experimental: as §1

[5] = system: E. coli GC 2883 (OXA-10/PSE-2); assay: MIC microbroth dilution; β-lactamase class D; format: cell-based
Experimental: as §1

[6] = system: A. baumannii GC 7685 TEM-1; assay: MIC microbroth dilution; β-lactamase class A; format: cell-based
Experimental: as §1

E. coli ATCC 35218 TEM-1 = assay: MIC microbroth dilution; β-lactamase class A; format: cell-based
Experimental: as §1

[7] = system: K. pneumoniae GC 7645 TEM-30 TEM-1 KPC-2 SHV-12; assay: MIC microbroth dilution; β-lactamase class A, A (Cb'ase), A (ESBL), A(IRT); format: cell-based
Experimental: as §1

[8] = system: S. typhimurium GC 4198 SHV-1 CTX-M-5; assay: MIC microbroth dilution; β-lactamase class A, A (ESBL); format: cell-based
Experimental: as §1

[9] = system: C. freundii PT 1499 Stably derepressed AmpC; assay: MIC microbroth dilution; β-lactamase class C; format: cell-based
Summary of the method: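 MICs came from the NCCLS-recommended microbroth dilution method, with Mueller-Hinton II broth as the medium. Incubation: 35° C., ambient air, 18-22 hours.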

[10] = system: S. marcescens GC 4132 Stably derepressed AmpC; assay: MIC microbroth dilution; β-lactamase class C; format: cell-based
Summary of the method: (§2)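 NCCLS microbroth dilution; MHBII; 35° C., ambient air, 18-22 hours.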

[11] = system: P. aeruginosa GC 4161 Stably derepressed AmpC; assay: MIC microbroth dilution; β-lactamase class C; format: cell-based
Summary of the method: as §2

[12] = system: C. freundii GC 4187 Stably derepressed AmpC; assay: MIC microbroth dilution; β-lactamase class C; format: cell-based
Summary of the method: as §2

[13] = system: E. coli GC 2021 (TEM-10 + pl 6.3); assay: MIC microbroth dilution; β-lactamase class A (ESBL); format: cell-based; conditions: Cefepime + 4 ug/ml Compound 1
Experimental: as §1

[14] = system: E. cloacae GC 1713 AmpC-constitutive; format: cell-based; conditions: Cefepime + 4 ug/ml Compound 1
Experimental: (§3) The in vitro activities of the antibiotics were determined by the microbroth dilution method as recommended by the National Committee for Clinical Laboratory Standards (NCCLS). (NCCLS. 2000. Methods for Dilution Antimicrobial Susceptibility Tests for Bacteria That Grow Aerobically; Approved Standards: M7-A5, vol. 19. National Committee for Clinical Laboratory Standards, Villanova, Pa.). Mueller-Hinton II broth (MHBII)(BBL Cockeysville, Md.), was used for the testing procedure. […] The plates were incubated for 18-22 hours at 35° C. in ambient air.

[15] = system: E. cloacae GC 7055 TEM-1, SHV-12 Amp C inducable; format: cell-based; conditions: Cefepime + 4 ug/ml Compound 1
Experimental: as §3

[16] = system: E. cloacae PT 197 Stably derepressed AmpC; format: cell-based; conditions: Cefepime + 4 ug/ml Compound 1
Experimental: as §3

class B enzyme CcrA = class B enzyme CcrA (Bacteroides fragilis, UniProt P25910); assay: β-Lactamase inhibition IC50 (nitrocefin, spectrophotometric); format: biochemical; conditions: enzyme 1.2 nM, 10 min preincubation at 25° C., read-out: IC50 Class B Ccr
Experimental: (§4) β-Lactamase inhibitory activity of the penem inhibitors was determined spectrophotometrically as described by Bush et al., [Bush, K., Macalintal, C., Rasmussen, B. A., Lee, V. and Yang, Y. Antimicrobial Agents and Chemotherapy 1993, 37, 851]. Homogeneously purified class A β-lactamases TEM-1 from E. coli and Imi-1 from Enterobacter cloacae, class B enzyme CcrA from Bacteroides fragilis and class C enzyme AmpC from Enterobacter cloacae were employed in the assay. The enzyme concentrations for TEM-1, Imi-1, CcrA and AmpC were 4.3, 7.1, 1.2 and 2.1 nM, respectively. A wide range of inhibitor concentrations were prepared in 50 mM PO4, pH 7.0 to include the possible IC50 values. The substrate used to initiate the enzyme reaction was nitrocefin at 50 μg/ml in the same buffer as the inhibitor. Initially the enzyme and inhibitor (20 μl each) were preincubated for 10 minutes at 25° C. prior to the addition of 160 μl volume of nitrocefin. Initial rates of hydrolysis were monitored for 5 minutes at 495 nm using a Molecular Devices Spectra Max 250 with kinetic protocol of SoftMax Program. Readings from the Spectra Max 250 were exported and transferred to Microsoft Excel. The percent of inhibition of each inhibitor concentration was calculated based on the control enzyme activity. The inhibitor concentration that caused a 50% reduction in the enzymatic activity (IC50) was determined graphically.

[17] = target: class A β-lactamase Imi-1 (Enterobacter cloacae, UniProt Q46991); assay: as above; format: biochemical
Experimental: as §4

class C enzyme AmpC = class C enzyme AmpC (Enterobacter cloacae, UniProt P05364); assay: as above; format: biochemical
Experimental: as §4

[18] = Cefepime alone, control of Compound 2 test
[19] = Citrobacter freundii, Cefepime alone, control of Compound 1 test

Sequence of class A β-lactamase Imi-1 (Q46991 entry or part of it): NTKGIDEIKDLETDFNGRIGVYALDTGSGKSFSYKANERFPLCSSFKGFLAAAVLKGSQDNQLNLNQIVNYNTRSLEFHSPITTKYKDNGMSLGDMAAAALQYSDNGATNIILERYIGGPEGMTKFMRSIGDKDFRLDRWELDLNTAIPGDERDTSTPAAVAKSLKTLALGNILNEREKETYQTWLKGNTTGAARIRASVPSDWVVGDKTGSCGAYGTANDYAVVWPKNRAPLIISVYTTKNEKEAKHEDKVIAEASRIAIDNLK
Sequence of class B enzyme CcrA (P25910 19-249): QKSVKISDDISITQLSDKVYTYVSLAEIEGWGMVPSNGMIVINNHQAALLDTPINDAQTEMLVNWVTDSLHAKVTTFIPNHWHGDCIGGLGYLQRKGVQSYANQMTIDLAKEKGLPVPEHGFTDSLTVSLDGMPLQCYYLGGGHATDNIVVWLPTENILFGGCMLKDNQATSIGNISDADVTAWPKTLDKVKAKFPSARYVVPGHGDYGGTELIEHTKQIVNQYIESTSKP
Sequence of class C enzyme AmpC (P05364 21-381): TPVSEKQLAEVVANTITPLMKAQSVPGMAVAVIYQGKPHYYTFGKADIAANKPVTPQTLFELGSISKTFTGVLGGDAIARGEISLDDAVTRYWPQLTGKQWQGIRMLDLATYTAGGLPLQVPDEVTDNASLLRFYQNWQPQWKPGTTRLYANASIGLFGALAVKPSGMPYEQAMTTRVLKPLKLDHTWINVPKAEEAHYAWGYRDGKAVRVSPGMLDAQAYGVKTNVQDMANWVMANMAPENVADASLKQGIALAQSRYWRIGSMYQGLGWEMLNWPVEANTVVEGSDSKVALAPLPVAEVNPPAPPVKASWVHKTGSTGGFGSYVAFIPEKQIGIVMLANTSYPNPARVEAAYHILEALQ

SMILES: CO/N=C(\C(=O)N[C@@H]1C(=O)N2C(C(=O)[O-])=C(C[N+]3(C)CCCC3)CS[C@H]12)c1csc(N)n1 [Cefepime, reference compound]
- MIC ([1]; E. coli GC 2295, Cefepime alone, control of Compound 2 test): 0.50 µg/mL (≈ 1.04 µM)
- MIC ([1]; Escherichia coli): 0.5 µg/mL (≈ 1.04 µM)
- MIC ([2]; P. aeruginosa PT 9025, Cefepime alone, control of Compound 2 test): >16 µg/mL
- MIC ([2]; Pseudomonas aeruginosa, PT9025PTZR): > 16 µg/mL
- MIC (E. coli GC 2906 (Imi-1); Escherichia coli, Cefepime alone, control of Compound 1 test): 0.5 µg/mL (≈ 1.04 µM)
- MIC ([3]; K. pneumoniae GC 7636, Cefepime alone, control of Compound 2 test): >16 µg/mL
- MIC ([3]; Klebsiella pneumoniae): > 16 µg/mL
- MIC ([4]; K. oxytoca GC 7627, Cefepime alone, control of Compound 2 test): >16 µg/mL
- MIC ([4]; Klebsiella oxytoca): > 16 µg/mL
- MIC [5, 18]: 0.06 µg/mL (≈ 0.125 µM)
- MIC ([6]; A. baumannii GC 7685, Cefepime alone, control of Compound 2 test): >16 µg/mL
- MIC ([6]; Acinetobacter baumannii, GC7685TEM1): > 16 µg/mL
- MIC (E. coli ATCC 35218 TEM-1; E. coli ATCC 35218, Cefepime alone, control of Compound 2 test): 0.03 µg/mL (≈ 0.0624 µM)
- MIC (E. coli ATCC 35218 TEM-1; Escherichia coli, ATCC35218): 0.03 µg/mL (≈ 0.0624 µM)
- MIC ([7]; K. pneumoniae GC 7645, Cefepime alone, control of Compound 2 test): >16 µg/mL
- MIC ([7]; Klebsiella pneumoniae): > 16 µg/mL
- MIC ([8]; S. typhimurium GC 4198, Cefepime alone, control of Compound 2 test): >16 µg/mL
- MIC ([8]; Salmonella enterica, TYPHIMURIUM): > 16 µg/mL
- MIC [9, 19]: 4 µg/mL (≈ 8.32 µM)
- MIC ([9]; Citrobacter freundii, Cefepime alone, control of Compound 2 test): 2 µg/mL (≈ 4.16 µM)
- MIC [10, 18]: 0.50 µg/mL (≈ 1.04 µM)
- MIC ([11]; P. aeruginosa GC 4161, Cefepime alone, control of Compound 2 test): >16 µg/mL
- MIC ([11]; Pseudomonas aeruginosa): > 16 µg/mL
- MIC [12, 19]: 2 µg/mL (≈ 4.16 µM)

SMILES: O=C([O-])C1=CS[C@@H]2/C(=C\c3cn4c(n3)CCC4)C(=O)N12.[Na+] [Compound 1, (5R), (6Z)-6-(6,7-Dihydro-5H-pyrrolo[1,2-a]imidazol-2-ylmethylene)-7-oxo-4-thia-1-aza-bicyclo[3.2.0]hept-2-ene-2-carboxylic Acid, Sodium Salt]
- MIC [13]: 0.12 µg/mL
- MIC ([1]; E. coli GC 2295, Cefepime + 4 ug/ml Compound 1): 0.12 µg/mL
- MIC ([2]; P. aeruginosa PT 9025, Cefepime + 4 ug/ml Compound 1): 16 µg/mL
- MIC (E. coli GC 2906 (Imi-1); Cefepime + 4 ug/ml Compound 1): 0.06 µg/mL
- MIC ([3]; K. pneumoniae GC 7636, Cefepime + 4 ug/ml Compound 1): 16 µg/mL
- MIC [14]: 0.12 µg/mL
- MIC [15]: 0.06 µg/mL
- MIC [16]: 0.50 µg/mL
- MIC ([4]; K. oxytoca GC 7627, Cefepime + 4 ug/ml Compound 1): 2 µg/mL
- MIC ([5]; Cefepime + 4 ug/ml Compound 1): 0.06 µg/mL
- IC50 (class B enzyme CcrA): 66 nM
- IC50 ([17]; enzyme 7.1 nM, 10 min preincubation at 25° C., nitrocefin, read-out: IC50 Class A Imi): 7.8 nM
- IC50 (class C enzyme AmpC; enzyme 2.1 nM, 10 min preincubation at 25° C., nitrocefin, read-out: IC50 Class C AmpC): 4.8 nM
- MIC ([6]; A. baumannii GC 7685, Cefepime + 4 ug/ml Compound 1): 16 µg/mL
- MIC (E. coli ATCC 35218 TEM-1; E. coli ATCC 35218, Cefepime + 4 ug/ml Compound 1): 0.03 µg/mL
- MIC ([7]; K. pneumoniae GC 7645, Cefepime + 4 ug/ml Compound 1): >16 µg/mL
- MIC ([8]; S. typhimurium GC 4198, Cefepime + 4 ug/ml Compound 1): 0.50 µg/mL
- MIC ([9]; Cefepime + 4 ug/ml Compound 1): 0.03 µg/mL
- MIC ([10]; Cefepime + 4 ug/ml Compound 1): 0.12 µg/mL
- MIC ([11]; P. aeruginosa GC 4161, Cefepime + 4 ug/ml Compound 1): 16 µg/mL
- MIC ([12]; Cefepime + 4 ug/ml Compound 1): 0.12 µg/mL

SMILES: O=C(O)C1=CS[C@@H]2/C(=C\c3cn4c(n3)COCC4)C(=O)N12 [Compound 2, (5R), (6Z)-6-(5,6-Dihydro-8H-imidazo[2.1-c][1,4]oxazin-2-ylmethylene)-7-oxo-4-thia-1-azabicyclo[3.2.0]hept-2-ene-2-carboxylic Acid, Sodium Salt]
- IC50 (class B enzyme CcrA): 230 nM
- IC50 [17]: 20 nM
- IC50 (class C enzyme AmpC): 2.2 nM
